In US20060069132A1, “Azolecarboxamide herbicides” (priority 2004, published 2006):

Assays:
[1] = system: barnyardgrass; assay: Test A pre-/postemergence herbicide test; type: in vivo, Echinochloa crus-galli; details: for Plant response rating, Barnyardgrass: Postemergence; for Barnyardgrass plant response rating: Preemergence
Summary of the method: (§1)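 Visual injury scores on a 0–100 scale (100 = complete control) taken about ten days post-treatment in greenhouse against untreated controls; dash means no result. Treatments: preemergence soil spray and postemergence spray to runoff on one- to two-leaf plants 2 to 10 cm tall, surfactant-containing formulation.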

[2] = system: large crabgrass; assay: Test A pre-/postemergence herbicide test; type: in vivo, Digitaria sanguinalis; details: for Plant response rating, Crabgrass, Large: Postemergence; for Crabgrass, Large plant response rating: Preemergence
Summary of the method: as §1

[3] = system: giant foxtail; assay: Test A pre-/postemergence herbicide test; type: in vivo, Setaria faberi; details: for Plant response rating, Foxtail, Giant: Postemergence; for Foxtail, Giant plant response rating: Preemergence
Summary of the method: as §1

[4] = system: morningglory; assay: Test A pre-/postemergence herbicide test; type: in vivo, Ipomoea spp.; details: for Plant response rating, Morningglory: Postemergence; for Morningglory plant response rating: Preemergence
Summary of the method: as §1

[5] = system: redroot pigweed; assay: Test A pre-/postemergence herbicide test; type: in vivo, Amaranthus retroflexus; details: for Plant response rating, Pigweed: Postemergence; for Pigweed plant response rating: Preemergence
Summary of the method: as §1

[6] = system: velvetleaf; assay: Test A pre-/postemergence herbicide test; type: in vivo, Abutilon theophrasti; details: for Velvetleaf plant response rating: Preemergence, visual rating, 0 to 100 scale (0 no effect, 100 complete control)
Summary of the method: as §1

[7] = system: barnyardgrass; assay: Test B pre-/postemergence herbicide test; type: in vivo, Echinochloa crus-galli
Summary of the method: (§2)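 Flooded paddy rice and barnyardgrass were treated at the 2-leaf stage; upland plantings received compound either on sown seed or on 1- to 4-leaf seedlings. All were kept 13–15 days in a greenhouse and scored visually, 0–100, relative to untreated plants.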

[8] = system: Surinam grass; assay: Test B pre-/postemergence herbicide test; type: in vivo, Urochloa decumbens
Summary of the method: (§3)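 Visual rating, 0 (no effect) to 100 (complete control), versus untreated controls after 13–15 d in greenhouse. Pre- and postemergence applications (postemergence plants 2–18 cm, 1–4 leaves); flooded paddy arm at 2-leaf stage. Compounds in non-phytotoxic solvent plus surfactant.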

[9] = system: cocklebur; assay: Test B pre-/postemergence herbicide test; type: in vivo, Xanthium strumarium
Summary of the method: as §2

[10] = system: corn; assay: Test B pre-/postemergence herbicide test; type: in vivo, Zea mays
Summary of the method: as §3

[11] = system: large crabgrass; assay: Test B pre-/postemergence herbicide test; type: in vivo, Digitaria sanguinalis
Summary of the method: as §3

[12] = system: giant foxtail; assay: Test B pre-/postemergence herbicide test; type: in vivo, Setaria faberi
Summary of the method: as §3

[13] = system: lambsquarters; assay: Test B pre-/postemergence herbicide test; type: in vivo, Chenopodium album
Summary of the method: as §3

[14] = system: morningglory; assay: Test B pre-/postemergence herbicide test; type: in vivo, Ipomoea coccinea; details: preemergence, 125 g ai/ha; 0 to 100 scale, 0 is no effect, 100 is complete control
Summary of the method: as §2

[15] = system: pigweed; assay: Test B pre-/postemergence herbicide test; type: in vivo, Amaranthus retroflexus
Summary of the method: as §3

[16] = system: velvetleaf; assay: Test B pre-/postemergence herbicide test; type: in vivo, Abutilon theophrasti
Summary of the method: as §3

[17] = system: blackgrass; assay: Test B postemergence herbicide test; type: in vivo, Alopecurus myosuroides; details: scale 0 (no effect) to 100 (complete control)
Summary of the method: (§4)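 After treating 2-leaf paddy plants or 2–18 cm postemergence plants (1 to 4 leaves) with formulated chemical, researchers kept them in a greenhouse for 13–15 days. Effects were judged visually versus controls: 0 indicates none, 100 total control.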

[18] = system: wheat; assay: Test B postemergence herbicide test; type: in vivo, Triticum aestivum; set-up: key to Wheat plant response rating: 0 = no effect, 100 = complete control; details: scale 0 (no effect) to 100 (complete control)
Summary of the method: (§5)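 Plants grow to 1- to 4-leaf stage (2–18 cm) for postemergence spraying, or to 2-leaf stage for the paddy test. Formulated compound is applied. Greenhouse holding lasts 13–15 days. Response is scored visually relative to controls, 0 no effect to 100 complete control; a dash means no result.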

[19] = system: wild oat; assay: Test B postemergence herbicide test; type: in vivo, Avena fatua; details: scale 0 (no effect) to 100 (complete control)
Summary of the method: as §5

[20] = system: rice; assay: Test B flooded paddy test; type: in vivo, Oryza sativa; details: 1000 g ai/ha, visual rating, scale 0 to 100 (0 no effect, 100 complete control), 13 to 15 days
Summary of the method: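 Read-out: visual comparison with controls, scored 0 to 100, where 100 means complete control and 0 no effect. Formulated chemicals were applied postemergence to plants 2–18 cm tall (1- to 4-leaf), or to flooded-paddy plants at the 2-leaf stage, then held 13 to 15 days under glass.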

[21] = system: small flower umbrella sedge; assay: Test B flooded paddy test; type: in vivo, Cyperus difformis; details: 1000 g ai/ha, visual rating, scale 0 to 100 (0 no effect, 100 complete control), 13 to 15 days
Summary of the method: as §4

[22] = system: ducksalad; assay: Test B flooded paddy test; type: in vivo, Heteranthera limosa; details: 1000 g ai/ha, visual rating, scale 0 to 100 (0 no effect, 100 complete control), 13 to 15 days
Summary of the method: as §4

[23] = system: barnyardgrass; assay: Test B flooded paddy test; type: in vivo, Echinochloa crus-galli; details: 1000 g ai/ha, visual rating, scale 0 to 100 (0 no effect, 100 complete control), 13 to 15 days
Summary of the method: as §4

[24] = 500 g ai/ha, 0 to 100 scale, 0 no effect, 100 complete control
[25] = 2000 g ai/ha, 0 to 100 scale, 0 no effect, 100 complete control
[26] = 500 g ai/ha, visual rating, 0 to 100 scale (0 no effect, 100 complete control)
[27] = Postemergence, 500 g ai/ha, visual rating after 13 to 15 days, scale 0 (no effect) to 100 (complete control)
[28] = Preemergence, 500 g ai/ha, scale 0 to 100
[29] = postemergence, 125 g ai/ha, visual rating, scale 0 (no effect) to 100 (complete control)
[30] = preemergence, 125 g ai/ha, 0 to 100 scale, 0 is no effect, 100 is complete control
[31] = Postemergence, 500 g ai/ha, visual rating after 13 to 15 days
[32] = postemergence, 125 g ai/ha, visual rating

C=Cn1nc(C(C)(C)C)cc1C(=O)Nc1cccc(C(=O)OCC)c1 [Compound 78]
50: Plant response rating, Velvetleaf ([6]; Postemergence, 2000 g ai/ha, 0 to 100 scale, 0 no effect, 100 complete control) | Velvetleaf plant response rating ([6]; 2000 g ai/ha)
60: Crabgrass, Large plant response rating [2, 26] | Plant response rating, Foxtail, Giant [3, 25]
80: Pigweed plant response rating [5, 26] | Cocklebur plant response rating [9, 29] | Plant response rating, Lambsquarters [13, 27] | Pigweed plant response rating [15, 29] | Plant response rating, Velvetleaf [16, 27] | Sedge, Umbrella plant response rating [21]
25: Plant response rating, Morningglory [4, 25] | Morningglory plant response rating [4, 26]
0: Barnyardgrass plant response rating [7, 28] | Plant response rating, Barnyardgrass [7, 30] | Plant response rating, Surinam Grass [8, 30] | Cocklebur plant response rating [9, 28] | Plant response rating, Cocklebur [9, 30] | Corn plant response rating [10, 28] | Plant response rating, Corn [10, 30] | Plant response rating, Crabgrass, Large [11, 30] | Plant response rating, Lambsquarters [13, 30] | Plant response rating, Morningglory [14] | Plant response rating, Pigweed [15, 30]
20: Barnyardgrass plant response rating [1, 26] | Plant response rating, Crabgrass, Large [2, 24] | Plant response rating, Foxtail, Giant [3, 24] | Plant response rating, Surinam Grass [8, 27] | Surinam Grass plant response rating [8, 29] | Crabgrass, Large plant response rating [11, 29] | Blackgrass plant response rating [17, 32] | Plant response rating, Oat, Wild [19, 31]
40: Plant response rating, Barnyardgrass [1, 25] | Morningglory plant response rating [4, 25] | Rice plant response rating [20]
35: Plant response rating, Crabgrass, Large [2, 25]
90: Crabgrass, Large plant response rating [2, 25] | Plant response rating, Pigweed [5, 25] | Pigweed plant response rating [5, 25] | Plant response rating, Pigweed [15, 27]
55: Foxtail, Giant plant response rating [3, 26]
30: Plant response rating, Barnyardgrass [1, 24] | Velvetleaf plant response rating ([6]; 500 g ai/ha) | Plant response rating, Barnyardgrass [7, 27] | Barnyardgrass plant response rating [7, 29] | Plant response rating, Crabgrass, Large [11, 27] | Plant response rating, Foxtail, Giant [12, 27] | Foxtail, Giant plant response rating [12, 28] | Foxtail, Giant plant response rating [12, 29] | Plant response rating, Blackgrass [17, 31] | Plant response rating, Wheat [18, 31] | Wheat plant response rating [18, 32] | Ducksalad plant response rating [22] | Barnyardgrass plant response rating [23]
100: Plant response rating, Cocklebur [9, 27]
85: Plant response rating, Pigweed [5, 24]
45: Barnyardgrass plant response rating [1, 25]
70: Foxtail, Giant plant response rating [3, 25] | Lambsquarters plant response rating [13, 29] | Velvetleaf plant response rating [16, 29]
10: Crabgrass, Large plant response rating [11, 28] | Plant response rating, Foxtail, Giant [12, 30] | Plant response rating, Velvetleaf [16, 30] | Oat, Wild plant response rating [19, 32]
15: Plant response rating, Morningglory [4, 24]
